Results on two molecules are retold here after publication PMC11207335, “In Vitro Metabolism and Transport Characteristics of Zastaprazan” (Pharmaceutics, 2024).

Structures are written as SMILES.

Data set [1] is described as follows: Apparent permeability in Caco-2 cells. In kind it is in vitro ADME. Particulars: human; for Papp A→B at 1 h, 4 µM / Papp B→A at 1 h, 4 µM: Caco-2, pH 7.4. How it is done:
Caco-2 cells (passage no. 41–42) were grown in tissue culture flasks containing Dulbecco’s Modified Eagle Medium supplemented with 20% FBS, 1% nonessential amino acids, and 1% penicillin–streptomycin. […] The culture medium was replaced every other day. On the day of the experiment, the growth medium was discarded, and the attached cells were washed with prewarmed HBSS (pH 7.4) and preincubated with HBSS for 20 min at 37 °C. […] Aliquots (30 μL) of each sample were vortex-mixed with 90 μL of IS solution for 1 min, and then centrifugation was performed at 13,500 rpm at 4 °C for 5 min. Aliquots (5 μL) of the supernatant were injected into the LC-MS/MS for analysis.
(Caco-2 cells form a polarised layer with tight junctions and transporters.)

The target in another data set is T1, OCT2 (Homo sapiens, UniProt O15244).
T1 sequence (O15244 1-555): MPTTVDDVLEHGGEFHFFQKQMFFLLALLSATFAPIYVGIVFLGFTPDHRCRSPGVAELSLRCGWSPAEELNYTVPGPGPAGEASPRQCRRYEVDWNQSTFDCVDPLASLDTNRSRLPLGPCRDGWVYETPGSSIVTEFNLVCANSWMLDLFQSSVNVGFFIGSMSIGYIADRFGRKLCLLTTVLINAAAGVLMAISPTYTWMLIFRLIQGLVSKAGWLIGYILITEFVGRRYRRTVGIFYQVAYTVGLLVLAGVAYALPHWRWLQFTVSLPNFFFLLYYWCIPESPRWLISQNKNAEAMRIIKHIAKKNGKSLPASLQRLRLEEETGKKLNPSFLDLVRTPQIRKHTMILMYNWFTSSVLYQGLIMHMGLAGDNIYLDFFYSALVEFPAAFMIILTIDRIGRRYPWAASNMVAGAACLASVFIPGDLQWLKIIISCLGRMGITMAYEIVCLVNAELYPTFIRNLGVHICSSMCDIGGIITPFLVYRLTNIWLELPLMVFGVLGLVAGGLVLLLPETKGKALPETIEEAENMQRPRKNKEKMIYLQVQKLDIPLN
The experiment in a line: Uptake into HEK293 cells expressing OCT2. The conditions noted are these: for Uptake Rate / Fold-Change: 6 μM; for Substrate: OCT2; for Fold-Change: vs HEK293-mock.

For the next data set, the target named is T2, OCT1 (Homo sapiens, UniProt O15245).
T2 sequence (O15245 1-554): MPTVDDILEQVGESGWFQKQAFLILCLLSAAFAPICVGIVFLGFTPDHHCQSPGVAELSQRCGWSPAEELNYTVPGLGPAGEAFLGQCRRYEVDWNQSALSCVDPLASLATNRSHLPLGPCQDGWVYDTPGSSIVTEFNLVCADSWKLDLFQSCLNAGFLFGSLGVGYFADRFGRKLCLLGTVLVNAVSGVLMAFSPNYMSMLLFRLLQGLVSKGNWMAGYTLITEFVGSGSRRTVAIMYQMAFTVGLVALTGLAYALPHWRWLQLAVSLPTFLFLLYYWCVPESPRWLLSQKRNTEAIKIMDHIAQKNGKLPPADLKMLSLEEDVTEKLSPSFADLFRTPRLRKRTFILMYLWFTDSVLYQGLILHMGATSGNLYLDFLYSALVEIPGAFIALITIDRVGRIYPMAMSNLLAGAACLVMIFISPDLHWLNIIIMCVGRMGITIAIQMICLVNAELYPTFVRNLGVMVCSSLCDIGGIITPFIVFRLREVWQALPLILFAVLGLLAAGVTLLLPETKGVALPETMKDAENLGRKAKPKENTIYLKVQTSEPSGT
The data set can be described thus: Uptake into HEK293 cells expressing OCT1. Particulars: for Uptake Rate / Fold-Change: 6 μM; for Substrate: OCT1; for Fold-Change: vs HEK293-mock.

For another data set, the target named is T3, OAT3 (Homo sapiens, UniProt Q8TCC7).
T3 sequence (Q8TCC7 1-542): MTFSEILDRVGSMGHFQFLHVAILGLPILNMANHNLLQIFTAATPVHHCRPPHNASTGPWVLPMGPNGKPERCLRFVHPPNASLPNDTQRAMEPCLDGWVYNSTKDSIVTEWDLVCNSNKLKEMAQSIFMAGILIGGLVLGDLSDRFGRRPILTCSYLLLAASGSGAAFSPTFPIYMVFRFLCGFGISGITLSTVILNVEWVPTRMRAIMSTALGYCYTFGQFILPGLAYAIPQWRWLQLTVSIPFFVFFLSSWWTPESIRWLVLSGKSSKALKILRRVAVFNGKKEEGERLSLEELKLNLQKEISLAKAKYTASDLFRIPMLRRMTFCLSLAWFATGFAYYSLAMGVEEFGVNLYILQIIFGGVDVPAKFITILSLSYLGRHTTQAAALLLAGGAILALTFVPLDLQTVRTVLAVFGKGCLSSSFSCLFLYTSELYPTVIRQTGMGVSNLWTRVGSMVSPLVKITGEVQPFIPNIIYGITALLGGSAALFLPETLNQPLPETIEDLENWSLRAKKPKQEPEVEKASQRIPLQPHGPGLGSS
The data set can be described thus: Uptake into HEK293 cells expressing OAT3. The conditions noted are these: for Uptake Rate / Fold-Change: 6 μM; for Substrate: OAT3; for Fold-Change: vs HEK293-mock.

Another data set concerns the target T4, MATE1 (Homo sapiens, UniProt Q96FL8).
T4 sequence (Q96FL8 1-570): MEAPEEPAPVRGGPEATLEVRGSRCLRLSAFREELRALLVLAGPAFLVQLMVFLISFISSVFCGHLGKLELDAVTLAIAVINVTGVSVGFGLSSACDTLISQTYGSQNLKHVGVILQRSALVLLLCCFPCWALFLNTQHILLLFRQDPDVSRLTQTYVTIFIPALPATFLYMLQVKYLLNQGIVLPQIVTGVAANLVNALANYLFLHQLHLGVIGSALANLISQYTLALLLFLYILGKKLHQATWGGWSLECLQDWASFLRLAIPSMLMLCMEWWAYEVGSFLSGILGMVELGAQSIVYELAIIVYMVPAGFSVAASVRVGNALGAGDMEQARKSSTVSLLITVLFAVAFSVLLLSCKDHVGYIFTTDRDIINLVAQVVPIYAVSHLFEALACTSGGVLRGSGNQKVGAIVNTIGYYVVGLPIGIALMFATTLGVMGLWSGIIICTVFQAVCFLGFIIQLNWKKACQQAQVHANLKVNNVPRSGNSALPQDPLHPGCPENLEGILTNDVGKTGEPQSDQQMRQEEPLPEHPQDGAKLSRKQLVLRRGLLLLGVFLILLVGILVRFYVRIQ
The data set can be described thus: Uptake into HEK293 cells expressing MATE1. The conditions noted are these: for Uptake Rate / Fold-Change: 6 μM; for Substrate: MATE1; for Fold-Change: vs HEK293-mock.

The mark [2] stands for this setting: HEK293-MATE1, cimetidine 100 μM.

As usually defined, the Papp A→B is the apparent permeability from the apical to the basolateral side of a cell layer. In general, Papp B→A refers to the apparent permeability from the basolateral to the apical side of a cell layer.

Take `Cc1cccc(C)c1CNc1cc(C(=O)N2CCC2)cn2c(C)c(C)nc12` [JP-1366, 1-azetidinyl(8-(((2,6-dimethylphenyl)methyl)amino)-2,3-dimethylimidazo(1,2-a)pyridin-6-yl)methanone]: the Papp A→B at 1 h, 4 µM in data set [1] came to 23 ± 5.79 ×10⁻⁶ cm/s. Also, the Papp B→A at 1 h, 4 µM in data set [1] stood at 10.7 ± 1.77 ×10⁻⁶ cm/s. Moreover, the “Uptake Rate” value came out at 49.28 ± 4.50 pmol/min/10^5 Cells on OCT2 (HEK293-OCT2, cimetidine 100 μM); 51.71 ± 1.36 pmol/min/10^5 Cells on OCT2 (HEK293-OCT2, control); 82.01 ± 3.72 pmol/min/10^5 Cells at OCT1 (HEK293-OCT1, cimetidine 100 μM); 82.43 ± 3.59 pmol/min/10^5 Cells on OCT1 (HEK293-OCT1, control); 58.53 ± 3.71 pmol/min/10^5 Cells on OAT3 (HEK293-OAT3, control); 52.47 ± 2.27 pmol/min/10^5 Cells at OAT3 (HEK293-OAT3, probenecid 20 μM). The “Uptake Rate” value was determined as 78.57 ± 5.38 pmol/min/10^5 Cells on MATE1 (setting [2]) and 65.32 ± 4.13 pmol/min/10^5 Cells on MATE1 (HEK293-MATE1, control). For the same molecule, the Substrate entry at OCT2, at OCT1, at OAT3 and at MATE1 was “No” in each case.

In the case of `Cc1cccc(CO)c1CNc1cc(C(=O)N2CCC2)cn2c(C)c(C)nc12` [M1, azetidin-1-yl(8-((2-(hydroxymethyl)-6-methyl-benzyl)amino)-2,3-dimethylimidazo[1,2-a]pyridin-6-yl)methanone], the Papp A→B at 1 h, 4 µM in data set [1] was 3.36 ± 0.24 ×10⁻⁶ cm/s. Also, in data set [1], the basolateral-to-apical permeability (Papp B→A) at 1 h, 4 µM was 20.3 ± 1.51 ×10⁻⁶ cm/s. Also, the efflux ratio at 1 h, 4 µM in data set [1] (pH 7.4, Caco-2, mean Papp,BA / mean Papp,AB, read-out: ER) amounted to 6. The “Uptake Rate” value on OCT2 (HEK293-OCT2, cimetidine 100 μM) stood at 49.28 ± 4.50 pmol/min/10^5 Cells; at OCT2 (HEK293-OCT2, control), 51.71 ± 1.36 pmol/min/10^5 Cells; on OCT1 (HEK293-OCT1, cimetidine 100 μM), 82.01 ± 3.72 pmol/min/10^5 Cells; on OCT1 (HEK293-OCT1, control), 82.43 ± 3.59 pmol/min/10^5 Cells; on OAT3 (HEK293-OAT3, control), 58.53 ± 3.71 pmol/min/10^5 Cells; on OAT3 (HEK293-OAT3, probenecid 20 μM) it was 52.47 ± 2.27 pmol/min/10^5 Cells. Moreover, the “Uptake Rate” value at MATE1 (setting [2]) worked out at 78.57 ± 5.38 pmol/min/10^5 Cells; at MATE1 (HEK293-MATE1, control), 65.32 ± 4.13 pmol/min/10^5 Cells. Also, the Fold-Change on OCT2 (HEK293-OCT2, cimetidine 100 μM) came out at 1.0; at OCT2 (HEK293-OCT2, control), 1.0; at OCT1 (HEK293-OCT1, cimetidine 100 μM), 1.6; at OCT1 (HEK293-OCT1, control), 1.6; on OAT3 (HEK293-OAT3, control), 1.1; at OAT3 (HEK293-OAT3, probenecid 20 μM), 1.0. Also, the Fold-Change was 1.5 at MATE1 (setting [2]) and 1.3 on MATE1 (HEK293-MATE1, control). Besides, the Substrate result at OCT2, on OCT1, at OAT3 and at MATE1 was “No” throughout.
